Results on three compounds are retold here after patent US20250195547A1, “COMPOSITIONS AND METHODS OF TREATMENT FOR CONGENITAL DIARRHEAL DISORDER” (VANDERBILT UNIVERSITY, priority 2022, published 2025).

“Also recorded” adds a separate entry of the source.

For one data set, the system named is Myo5bΔINT mice. Put plainly: Daily LPAR agonist treatment of tamoxifen-induced Myo5bΔINT mice (MVID model), intestinal histology and immunostaining. It is filed as in vivo, mouse. The note with it: for tuft cell differentiation (tuft cell population) in Myo5bΔINT intestine: once a day for 4 days, LPA 3 mg/kg, Compound-1 1 mg/kg, UCM-05194 10 mg/kg, GRI977143 3 mg/kg; for Hmgcs2 protein expression in jejunal epithelial cells / apical localization of transporters NHE3 and SGLT1: immunostaining; for Hmgcs2 protein expression in jejunal epithelial cells: once daily ip for 4 days; for apical localization of transporters NHE3 and SGLT1: small intestine, daily treatment. The method, then: All animal studies were performed with approval from the Institutional Animal Care and Use Committee of Vanderbilt University Medical Center (M2000104). At the 8-10 week of age, Myo5bΔINT mice and littermate controls (VilCre^ERT2; Myo5b^+/flox and Myo5b^flox/flox) received a single dose of tamoxifen (100 mg/kg) by intraperitoneal (IP) injection (day 0) (Weis et al.). […] Compound-1 was dissolved in PBS, and UCM-05194 was dissolved in Captisol solution. Body weight changes and diarrhea symptoms were investigated daily. On day 4, mice were euthanized and the duodenum (0-8 cm from the pyloric ring), jejunum (8 cm following the duodenum), ileum (distal 8 cm from the ileocecal junction), and colon were collected for pathological assessment as previously reported (Kaji et al.).
Immunofluorescence staining and imaging were performed as previously reported (Kaji, JCI Insight). Four-μm-thin sections were deparaffinized and rehydrated before performing antigen retrieval using 10 mM sodium citrate buffer, contained 0.05% Tween 20 (pH 6), in a pressure cooker for 15 minutes. After cooling down on ice, slides were rinsed in PBS and blocked with protein block serum-free (Dako) for 1 hour at r/t or overnight at 4° C. The primary antibodies against NHE3 (1:200), SGLT1 (0.5 μg/ml) (Kaji et al., 2020), DCLK1 (AF647-conjugated, 1:2000), KRT19 (1:250), CD3, HMGCS2 (1:50), or Actg1 (1:100) were diluted in Dako diluent in background reducing compound (S3022) and incubated on sections overnight at 4° C. After rinsing in 0.1 M PBS, the slides were incubated with the corresponding secondary antibodies conjugated with fluorescence (Jackson Laboratory) for 1 hour. Slides were rinsed in 0.1 M PBS and counterstained with Hoechst 33342 (4 mM, Thermo Fisher Scientific, Waltham, MA) in PBS. The stained slides were cover-slipped with ProLong Gold Antifade Reagent (P36934, Thermo Fisher). Whole slide images were scanned by a Versa imager 200 with a 20× objective (Leica Biosystems, Buffalo Grove, IL) in the Vanderbilt Digital Histology Shared Resource (DHSR). Some immunofluorescence images were taken by using a Zeiss Axio Imager M2 with ApoTome (Carl Zeiss Microscopy, LLC, White Plains NY).
The DIA code to quantify the tuft cell populations was developed at the DHSR on Python platform as described previously (Kaji 2021).

Another data set concerns the target human LPAR5 (Homo sapiens, UniProt Q9H1C0). The note with it: cited from earlier work.
The target in the next data set is T1, human LPAR3 (Homo sapiens, UniProt Q9UBY5).
T1 sequence (Q9UBY5 1-353): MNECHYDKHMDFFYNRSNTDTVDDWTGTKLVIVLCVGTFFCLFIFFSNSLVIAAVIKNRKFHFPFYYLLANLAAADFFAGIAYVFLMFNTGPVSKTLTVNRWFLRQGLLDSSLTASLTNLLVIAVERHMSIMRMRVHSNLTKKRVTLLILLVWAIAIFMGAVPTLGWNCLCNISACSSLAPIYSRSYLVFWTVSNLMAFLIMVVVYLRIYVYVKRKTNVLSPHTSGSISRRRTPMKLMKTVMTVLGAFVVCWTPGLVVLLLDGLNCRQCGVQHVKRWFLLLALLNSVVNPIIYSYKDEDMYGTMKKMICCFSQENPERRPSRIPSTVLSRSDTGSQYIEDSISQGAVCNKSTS
The note with it: cited from earlier work.

Another data set can be described thus: Solubility / stability. The class given is physicochemical. The note with it: as a sodium salt.
The test system of the next data set is Myo5bΔINT enteroids. Put plainly: Bulk transcriptional analysis (RNA-seq) in MYO5B deficient mouse enteroids. It is filed as cell-based. To be noted: 100 nM. On the procedure:
Enteroids were generated from jejunal crypts of adult VilCre^ERT2; Myo5b^flox/flox and VilCre^ERT2; Myo5b^flox/G519R mice (Burman & Momoh CMGH) without tamoxifen treatment and passaged twice with mechanical breakdown. One day after the second passage, 1 μM 4-OH-tamoxifen (SML1666, Sigma) was added into the IntestiCult Organoid Growth Medium (Mouse, Stem Cell Technology) and incubated for 24 hours to induce Cre recombinase. After the incubation with 4-OH-tamoxifen (induced KO or G519R) or the vehicle, 100% ethanol (Control), the medium was replaced with the modified Minigut medium (Mahe et al., 2013) containing 5% Noggin conditioned medium and 5% R-spondin conditioned medium (Vanderbilt Organoid Core) to withdraw Wnt and EGF for enhancing cell differentiation (Kaji JCI Insight). Some iKO enteroids were incubated with 100 nM Compound-1 for 2 days in differentiation conditions.
Following differentiation, enteroids were placed in Organoid Harvesting Solution (3700-100-01; Cultrex) for 1 hr at 4° C. Enteroids were washed with PBS and centrifuged. Enteroid pellets were immersed in TRIzol reagent (15596026; Invitrogen) supplemented with glycogen (G1767; Sigma Aldrich) and stored at −20° C. Total RNA was extracted from enteroids following the manufacturer's instructions. RNA-sequencing with 4 samples per group and differential expressing gene analysis were performed in Novogene.

Data set [1] is described as follows: Plasma level after bolus intraperitoneal injection in wild type adult mice. It is filed as in vivo, mouse.
Data set [2] relates to MYO5B(P663L) pig enteroids. Description: Tuft cell differentiation in pig MVID model enteroids. The class given is cell-based. To be noted: 100 nM daily in ODM, 5 days, vs vehicle (PBS). On the procedure: Pig enteroids were expanded in Matrigel (Corning) immersed in IntestiCult Organoid Growth Medium (Human, OGM, Stem Cell Technology). Organoid growth was assessed in 96-well plate and continuously imaged whole wells using a JuLi™ Stage (NanoEn Tek Inc., Waltham, MA). Organoid perimeter was measured by using FIJI, and organoid forming rate was calculated as sphere numbers per plated cell numbers 7 days after the passaging. N=7-9 wells from each genotype. In a different set of culture, tuft cells were differentiated in Organoid Differentiation Medium (ODM, Stem Cell Technology) for 5 days, following after 2 days culture in OGM after passaging. MYO5B(P663L) enteroids were incubated with 100 nM Compound-1 or vehicle (PBS) in ODM.
Organoids were fixed with 10% NBF for 30 min in Matrigel domes, rinsed with cold PBS containing 0.1% FBS and centrifuged to remove Matrigel. Fixed organoids were blocked with 5% normal donkey serum in PBS containing 0.3% Triton X-100 for 2 hours and incubated with the pGirdin (1:100) or POU2F3 (1:200) antibody diluted with the blocking solution for 2 days at 4° C. After rinsing in PBS with Triton X-100, donkey anti-rabbit Cy3 antibody (2.5 μg/ml), Alexa Fluor 488 phalloidin (1:400, A12379, Thermo Fisher), and Hoechst 33342 (2 mM) were applied for 2 hr. […]

For data set [3] the following is noted: natural LPA; background statement; cited from earlier work.

human LPAR5, sequence (Q9H1C0 whole entry): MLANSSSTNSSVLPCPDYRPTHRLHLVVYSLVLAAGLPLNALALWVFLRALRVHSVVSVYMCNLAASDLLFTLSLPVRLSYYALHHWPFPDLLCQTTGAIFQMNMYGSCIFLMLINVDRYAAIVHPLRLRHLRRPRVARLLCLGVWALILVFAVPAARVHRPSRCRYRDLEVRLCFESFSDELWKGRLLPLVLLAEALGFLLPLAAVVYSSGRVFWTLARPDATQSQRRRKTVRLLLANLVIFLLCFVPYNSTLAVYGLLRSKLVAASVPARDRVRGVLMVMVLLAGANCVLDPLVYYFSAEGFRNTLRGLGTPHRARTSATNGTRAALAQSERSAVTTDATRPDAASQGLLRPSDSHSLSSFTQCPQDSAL

Take `O=C(CCCc1ccccc1)O[C@H](CBr)COP(=O)(O)O` [UCM-05194, reference compound]: the intestinal histology result in the data set on Myo5bΔINT mice (once a day for 4 days after tamoxifen) is on record as “did not significantly alter”. Further, the “tuft cell differentiation (tuft cell population) in Myo5bΔINT intestine” value in the data set with Myo5bΔINT mice is “no significant effect”.
For the compound `CCCCCCCCCCCCCCCCOC(CCP([O-])(O)=S)COC.[Na+]` (stereo not shown) [Compound-1], at human LPAR5, the EC50 (as a rule, the concentration giving half of the maximal effect) is 0.26 nM. Further, the “effect on human LPAR3” value at human LPAR3 was “agonistic effect”. In addition, in the data set “Solubility / stability”, the solubility in water entry is listed as “highly soluble”. Moreover, the Intestinal villus/crypt ratio entry in the data set with Myo5bΔINT mice (Compound-1 1 mg/kg daily, intraperitoneal, 4 days, vs vehicle) is listed as “significantly improved”. The “increase of villus/crypt ratio in the small intestine” value in the data set on Myo5bΔINT mice (daily Compound-1 treatment) came to 150%. In the data set with Myo5bΔINT mice (high dose 2 mg/mouse per tablet), the “effect of subcutaneous tablet insertion (continuous delivery)” value is reported as “no consistent effect”. Moreover, in the data set on Myo5bΔINT mice, the “Hmgcs2 protein expression in jejunal epithelial cells” value is “remarkably upregulated”; the “tuft cell differentiation (tuft cell population) in Myo5bΔINT intestine” value is “reversed; also recorded: significantly increased”; the “apical localization of transporters NHE3 and SGLT1” value is “partially recovered; also recorded: partially reversed to normal”. Also, in the data set with Myo5bΔINT mice (low dose 0.2 mg/mouse per tablet), the “effect of subcutaneous tablet insertion (continuous delivery)” value is recorded as “no consistent effect”. Besides, the body weight loss entry in the data set with Myo5bΔINT mice (within 4 days, similar to vehicle-treated group) is “approximately 14%”. For the same compound, the “Nox1 expression decreased by MYO5B loss” value in the data set on Myo5bΔINT enteroids (2 days) is on record as “reversed”. Further, the “inflammation- and infection-related genes (Nlrp1b, Ldhb, Hspg2, Trim30) increased by MYO5B loss” value with Myo5bΔINT enteroids (2 days during differentiation) was “significantly reversed”. In the data set with Myo5bΔINT enteroids (2 days, control vs MYO5B deficient enteroids), the “Hmgcs2 expression in enteroids with and without Compound-1” value is reported as “comparable”. The Compound in plasma result in data set [1] (1 hour after bolus ip injection 10 mg/kg) is listed as “detected”. For the same compound, the “plasma concentration (disappeared)” value in data set [1] (within 6 hours after bolus ip injection 10 mg/kg) was less than 10 ng/mL. The “tuft cell numbers in MYO5B(P663L) enteroids” value in data set [2] is “significantly increased”.
With `CCCCCCCC/C=C\CCCCCCCC(=O)OCC(O)COP(=O)(O)O` (stereo not shown) [LPA, 18:1 1-oleoyl-Lyso PA, reference compound], the solubility and stability entry in data set [3] is on record as “poor”. The “fatty acid oxidation or lipogenesis pathways (transcription)” value with Myo5bΔINT mice (RNA-seq of jejunal epithelial cells, in vivo LPA (18:1)) is reported as “did not reverse”. In addition, the “transcription of Hmgcs2 in jejunal epithelial cells” value with Myo5bΔINT mice (RNA-seq, vs vehicle-treated Myo5bΔINT or healthy littermate mice) is on record as “significantly upregulated”. In addition, in the data set on Myo5bΔINT mice, the “Hmgcs2 protein expression in jejunal epithelial cells” value is reported as “further increased”; the “tuft cell differentiation (tuft cell population) in Myo5bΔINT intestine” value is reported as “reversed”; the “apical localization of transporters NHE3 and SGLT1” value is listed as “similarly improved”.
